Laboratory results reported in patent US7582767B2 (Biovitrum AB (publ.), priority 2005, dated 2009).
Where a name gives a salt, the structure may show the parent alone. Read-outs that look alike come from different tables or passages of the source. One block for each compound: values may come before it.

Assays:
[1] = molecular target: T1, 5-HT2c (Homo sapiens, UniProt P28335); experiment: Selectivity binding 5-HT2c
T1 sequence (P28335 33-458): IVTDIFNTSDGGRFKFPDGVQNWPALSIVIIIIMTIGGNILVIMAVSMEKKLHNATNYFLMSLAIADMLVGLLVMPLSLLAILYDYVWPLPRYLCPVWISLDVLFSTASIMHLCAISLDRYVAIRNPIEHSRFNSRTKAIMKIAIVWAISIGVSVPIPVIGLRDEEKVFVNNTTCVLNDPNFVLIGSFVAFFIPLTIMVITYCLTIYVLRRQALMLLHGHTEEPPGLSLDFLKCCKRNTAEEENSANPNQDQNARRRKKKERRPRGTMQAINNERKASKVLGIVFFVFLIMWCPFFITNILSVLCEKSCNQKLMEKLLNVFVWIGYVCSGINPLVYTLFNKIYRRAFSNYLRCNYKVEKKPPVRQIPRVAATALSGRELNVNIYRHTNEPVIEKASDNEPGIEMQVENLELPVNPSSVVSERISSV

[2] = molecular target: T2, human 5-HT6 receptor (Homo sapiens, UniProt P50406); experiment: 5-HT6 binding assay ([3H]-LSD, SPA, membranes of transfected HEK293 cells)
T2 construct: expressed in transfected cells; host or cells: HEK293
T2 sequence (P50406 whole entry): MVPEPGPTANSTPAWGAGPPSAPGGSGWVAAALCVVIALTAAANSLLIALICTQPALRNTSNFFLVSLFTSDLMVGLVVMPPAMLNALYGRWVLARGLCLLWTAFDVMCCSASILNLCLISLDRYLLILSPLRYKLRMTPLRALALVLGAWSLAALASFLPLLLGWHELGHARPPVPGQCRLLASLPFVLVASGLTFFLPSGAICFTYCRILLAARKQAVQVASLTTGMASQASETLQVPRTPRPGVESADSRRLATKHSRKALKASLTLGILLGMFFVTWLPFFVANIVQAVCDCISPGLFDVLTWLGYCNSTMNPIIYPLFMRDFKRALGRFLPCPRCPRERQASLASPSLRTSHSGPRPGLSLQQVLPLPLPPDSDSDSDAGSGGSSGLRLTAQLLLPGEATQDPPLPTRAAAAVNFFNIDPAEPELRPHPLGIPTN

[3] = molecular target: 5-HT2a (Homo sapiens, UniProt P28223); experiment: Selectivity binding 5-HT2a
5-HT2a, sequence (P28223 whole entry, species assumed): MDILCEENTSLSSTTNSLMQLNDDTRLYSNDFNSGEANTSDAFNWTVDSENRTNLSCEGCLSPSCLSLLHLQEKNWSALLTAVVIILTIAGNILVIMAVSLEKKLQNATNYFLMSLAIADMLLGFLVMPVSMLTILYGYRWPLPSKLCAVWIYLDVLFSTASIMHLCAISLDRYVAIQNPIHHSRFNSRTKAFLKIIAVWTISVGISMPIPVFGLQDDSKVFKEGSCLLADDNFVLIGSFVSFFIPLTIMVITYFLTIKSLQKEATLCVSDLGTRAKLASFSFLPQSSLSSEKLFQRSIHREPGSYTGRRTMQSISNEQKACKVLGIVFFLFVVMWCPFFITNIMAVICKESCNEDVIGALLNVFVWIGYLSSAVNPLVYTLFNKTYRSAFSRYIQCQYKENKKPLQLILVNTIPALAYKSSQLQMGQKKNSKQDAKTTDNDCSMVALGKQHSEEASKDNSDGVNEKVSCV

[4] = molecular target: T3, 5-HT1a (Homo sapiens, UniProt P08908); experiment: Selectivity binding 5-HT1a
T3 sequence (P08908 1-422): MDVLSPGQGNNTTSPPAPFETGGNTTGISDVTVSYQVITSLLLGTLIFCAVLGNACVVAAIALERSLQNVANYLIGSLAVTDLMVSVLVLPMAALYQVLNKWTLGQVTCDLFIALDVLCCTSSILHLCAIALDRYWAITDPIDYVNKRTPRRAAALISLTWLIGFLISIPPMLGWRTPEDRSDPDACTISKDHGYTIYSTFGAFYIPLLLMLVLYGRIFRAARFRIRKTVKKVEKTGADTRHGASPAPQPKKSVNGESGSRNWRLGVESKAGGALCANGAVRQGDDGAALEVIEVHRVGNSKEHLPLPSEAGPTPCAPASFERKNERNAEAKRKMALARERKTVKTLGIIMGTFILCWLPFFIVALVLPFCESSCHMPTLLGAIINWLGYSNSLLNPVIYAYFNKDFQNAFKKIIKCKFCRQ

[5] = molecular target: 5-HT2b (Homo sapiens, UniProt P41595); experiment: Selectivity binding 5-HT2b
5-HT2b, sequence (P41595 whole entry, species assumed): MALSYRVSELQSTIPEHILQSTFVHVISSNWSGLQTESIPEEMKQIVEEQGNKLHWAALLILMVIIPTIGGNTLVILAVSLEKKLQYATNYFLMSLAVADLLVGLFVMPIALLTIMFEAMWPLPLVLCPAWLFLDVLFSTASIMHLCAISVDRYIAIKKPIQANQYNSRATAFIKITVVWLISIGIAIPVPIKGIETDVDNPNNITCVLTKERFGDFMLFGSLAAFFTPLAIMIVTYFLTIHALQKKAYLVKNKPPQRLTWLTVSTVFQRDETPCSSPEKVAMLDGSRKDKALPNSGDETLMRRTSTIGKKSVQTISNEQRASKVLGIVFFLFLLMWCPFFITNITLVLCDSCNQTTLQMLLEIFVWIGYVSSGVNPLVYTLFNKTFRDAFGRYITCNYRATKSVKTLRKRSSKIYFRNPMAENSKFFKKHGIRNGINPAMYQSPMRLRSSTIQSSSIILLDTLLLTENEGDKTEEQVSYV

[6] = molecular target: 5-HT1b (Homo sapiens, UniProt P28222); experiment: Selectivity binding 5-HT1b
5-HT1b, sequence (P28222 whole entry, species assumed): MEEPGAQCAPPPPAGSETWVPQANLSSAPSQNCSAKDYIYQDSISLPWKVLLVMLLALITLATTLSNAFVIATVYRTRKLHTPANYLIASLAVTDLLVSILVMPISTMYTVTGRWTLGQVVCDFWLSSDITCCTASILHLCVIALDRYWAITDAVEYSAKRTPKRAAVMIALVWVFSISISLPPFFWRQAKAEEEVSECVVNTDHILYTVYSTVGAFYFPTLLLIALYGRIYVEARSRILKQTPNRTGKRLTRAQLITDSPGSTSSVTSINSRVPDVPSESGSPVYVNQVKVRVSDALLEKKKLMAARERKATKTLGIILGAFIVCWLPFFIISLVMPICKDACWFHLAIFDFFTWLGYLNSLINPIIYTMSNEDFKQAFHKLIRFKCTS

[7] = molecular target: T4, 5-HT3 (Homo sapiens, UniProt P46098); experiment: 5-HT3 binding (human recombinant, HEK-293 cells)
T4 construct: expressed in transfected cells; host or cells: HEK-293 cells
T4 sequence (P46098 24-478): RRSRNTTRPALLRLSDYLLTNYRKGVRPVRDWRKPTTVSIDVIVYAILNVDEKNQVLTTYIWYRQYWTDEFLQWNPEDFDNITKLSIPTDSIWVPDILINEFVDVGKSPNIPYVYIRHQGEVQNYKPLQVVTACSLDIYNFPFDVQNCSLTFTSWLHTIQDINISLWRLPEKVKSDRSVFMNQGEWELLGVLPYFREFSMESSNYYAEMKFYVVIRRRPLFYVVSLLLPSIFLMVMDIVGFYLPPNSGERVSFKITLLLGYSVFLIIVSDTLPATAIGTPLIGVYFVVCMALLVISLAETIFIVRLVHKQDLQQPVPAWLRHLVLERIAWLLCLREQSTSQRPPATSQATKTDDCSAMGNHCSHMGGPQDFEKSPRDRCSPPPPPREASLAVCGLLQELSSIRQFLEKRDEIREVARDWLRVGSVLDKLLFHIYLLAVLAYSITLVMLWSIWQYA

[8] = molecular target: T5, κ (KOP) (Cavia porcellus, UniProt P41144); experiment: κ (KOP) binding (guinea-pig cerebellum)
T5 construct: Guinea-pig cerebellum; from tissue; host or cells: guinea-pig cerebellum
T5 sequence (P41144 whole entry): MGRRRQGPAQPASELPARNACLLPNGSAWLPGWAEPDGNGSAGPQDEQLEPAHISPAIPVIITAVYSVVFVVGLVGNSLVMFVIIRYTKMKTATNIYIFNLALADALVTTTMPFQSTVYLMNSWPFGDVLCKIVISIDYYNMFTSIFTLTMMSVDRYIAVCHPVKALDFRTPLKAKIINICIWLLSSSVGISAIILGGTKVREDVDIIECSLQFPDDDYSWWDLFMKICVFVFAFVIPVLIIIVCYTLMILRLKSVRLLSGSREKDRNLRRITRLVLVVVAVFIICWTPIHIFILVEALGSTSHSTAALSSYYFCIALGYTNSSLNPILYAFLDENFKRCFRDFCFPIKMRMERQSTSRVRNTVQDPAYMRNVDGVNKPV

[9] = molecular target: T6, β1 (Homo sapiens, UniProt P08588); experiment: β1 binding (human recombinant, HEK-293 cells)
T6 construct: expressed in transfected cells; host or cells: HEK-293 cells
T6 sequence (P08588 whole entry): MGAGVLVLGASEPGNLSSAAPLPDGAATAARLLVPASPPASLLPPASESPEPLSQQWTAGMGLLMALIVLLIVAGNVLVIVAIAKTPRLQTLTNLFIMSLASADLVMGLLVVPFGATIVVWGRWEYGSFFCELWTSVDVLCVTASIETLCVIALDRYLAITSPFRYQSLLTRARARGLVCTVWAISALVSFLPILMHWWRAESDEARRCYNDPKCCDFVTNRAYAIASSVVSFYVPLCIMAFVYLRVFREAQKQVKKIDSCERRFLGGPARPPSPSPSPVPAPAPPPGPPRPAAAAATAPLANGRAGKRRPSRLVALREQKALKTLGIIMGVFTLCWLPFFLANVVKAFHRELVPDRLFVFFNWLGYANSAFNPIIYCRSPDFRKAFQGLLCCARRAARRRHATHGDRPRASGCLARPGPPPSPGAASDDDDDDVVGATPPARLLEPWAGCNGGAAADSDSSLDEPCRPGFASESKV

[10] = molecular target: T7, β2 (Homo sapiens, UniProt P07550); experiment: β2 binding (human recombinant, Sf9 cells)
T7 construct: expressed in transfected cells; host or cells: Sf9 cells
T7 sequence (P07550 whole entry): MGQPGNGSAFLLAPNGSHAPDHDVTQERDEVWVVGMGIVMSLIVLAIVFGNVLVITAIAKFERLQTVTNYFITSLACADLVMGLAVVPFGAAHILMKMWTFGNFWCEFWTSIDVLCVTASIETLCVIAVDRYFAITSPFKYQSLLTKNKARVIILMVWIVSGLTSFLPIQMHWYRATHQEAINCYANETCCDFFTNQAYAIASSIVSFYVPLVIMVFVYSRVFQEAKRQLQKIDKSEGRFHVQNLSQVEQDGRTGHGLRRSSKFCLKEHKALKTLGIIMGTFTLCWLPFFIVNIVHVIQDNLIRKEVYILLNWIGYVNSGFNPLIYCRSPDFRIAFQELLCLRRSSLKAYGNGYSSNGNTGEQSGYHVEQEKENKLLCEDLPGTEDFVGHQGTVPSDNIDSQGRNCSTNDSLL

[11] = molecular target: T2, human 5-HT6 receptor; experiment: 5-HT6 intrinsic activity assay (inhibition of 5-HT induced increase in cAMP); format: cell-based
[12] = molecular target: κ (KOP) (Homo sapiens, UniProt P41145); experiment: κ (KOP) EC50 (method not described)
κ (KOP) (Homo sapiens, UniProt P41145), sequence (P41145 whole entry): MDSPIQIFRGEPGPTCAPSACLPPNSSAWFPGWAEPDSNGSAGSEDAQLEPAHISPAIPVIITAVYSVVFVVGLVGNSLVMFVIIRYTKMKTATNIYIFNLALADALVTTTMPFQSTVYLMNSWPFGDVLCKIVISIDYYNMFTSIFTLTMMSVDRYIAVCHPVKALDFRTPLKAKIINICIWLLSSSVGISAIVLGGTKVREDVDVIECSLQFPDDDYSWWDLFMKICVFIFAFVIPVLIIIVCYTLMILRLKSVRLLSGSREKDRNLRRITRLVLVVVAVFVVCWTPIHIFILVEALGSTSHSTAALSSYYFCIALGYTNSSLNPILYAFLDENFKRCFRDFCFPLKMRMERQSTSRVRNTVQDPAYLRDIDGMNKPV

[13] = tested on: food intake of DIO rats; experiment: Effect on food intake, 28 days oral treatment of DIO rats; format: in vivo, male Sprague-Dawley rats; conditions: for food intake versus vehicle, Dunnets t-test: first seven days
Description: (§1) (c) Effect on Body Weight and on Food Intake
(§2) The corresponding solution was used as vehicle. The stability of the solutions were checked upon storage for 14 days. Solutions were formulated twice a week and stored in freezer. The solutions were analysed for the actual concentrations and found similar between the two occasions.
(§3) Hundred (100) male Sprague-Dawley rats were raised on high fat diet at Scanbur BK AB (Sollentuna, Sweden) which upon their arrival to the Biovitrum animal care facility weighed approximately 700 g (17 weeks old). The rats were conditioned and weighed for approximately three weeks after their arrival. The rats were singly stored in standard cages during constant room conditions (temp 22+/−1° C., humidity 40-60%, 12 h light/dark cycle, lights off at 10 am). The rats received the same high fat diet (45 kcal % fat, 4.7 kcal/g; D12451) as they received at Scanbur. The diets were purchased from Research Diets, Inc., New Jersey, USA, consisted of pellets and were stored under dry and cold conditions.
(§4) The high fat fed animals which gained the highest weight were selected. This population weighed 799±60 g. The selected forty-eight (48) rats were randomized and divided into […] treatment groups in order to obtain as homogeneous groups according to body weight as possible. Each treatment group consisted of 12 rats: Group 1—vehicle, Group 2—Example 1-5 mg/kg (11 μmol/kg), Group 3—Example 1-15 mg/kg (33 μmol/kg), Group 4—Example 1-30 mg/kg (66 μmol/kg). Further nine (9) rats were allocated for measurement of compound exposure and pharmacokinetics at each dose group in parallel for the seventh and the twentyninth days. The study was started by baseline measurements for five days in order to accustom the rats to the procedure and to the experimentalists. Test compound was administered orally once a day at 9-10 am in a volume of 2.5 ml/kg i.e.an average of 2 ml per (800 g) rat. Pellets and body were weighed each day in connection with the injections. Water bottles were weighed once a week. The weighings were done with a computer-assisted Mettler Toledo PR 5002 balance. All data were transferred into an Excel template.
(§5) The food and water intake, and body weight data are calculated in gram and % of basal and expressed as mean +/−SD and/or +/−SEM.
(§6) The data of body weight and food intake was statistically analysed by two-way univariate ANOVA with repeated measurements (treatment x time) followed by one-way ANOVA for comparison between treatment groups at selected time points. Clinical chemistry measurements were analysed by one-way ANOVA followed by Dunnetts t-test for test of significance of treatment groups versus vehicle control. A difference between two groups was considered significant if P<0.05. Statistical evaluation was performed using SPSS for Windows.

[14] = tested on: body weight of DIO rats; experiment: Effect on body weight, 28 days oral treatment of DIO rats; format: in vivo, male Sprague-Dawley rats; conditions: for Body weight Mean (g) Day 28: 28 days; for Basal Mean (%) Day 28: body weight % of basal; for Body weight gain Mean: day 28-initial; for Reduction % of vehicle / Reduction gram: versus vehicle at day 28
Description: as §1, §2, §3, §4, §5, §6

[15] = read-out: 5-HT2c Selectivity Binding (Ki)
[16] = competition with 3 nM [3H] LSD, HEK293 membranes, read-out: 5-HT6 Binding (Ki)
[17] = read-out: 5-HT2a Selectivity Binding (Ki)
[18] = read-out: 5-HT1a Selectivity Binding (Ki)
[19] = read-out: 5-HT1b Selectivity Binding (Ki)

Structure (SMILES): Cl.O=S(=O)(Nc1cc(OC2CCNCC2)c2occc2c1)c1ccc(Cl)s1 [Compound A, 5-chlorothiophene-2-sulphonic acid, [7-(piperidin-4-yloxy)-benzofuran-5-yl]amide, hydrochloride]
- Ki [1, 15]: > 1000 nM
- Ki [2, 16]: 9 nM
- Ki [3, 17]: > 1000 nM
- Ki [4, 18]: 1520 nM
- Ki [5]: 356 nM
- Ki [6, 19]: 1470 nM
- 5-HT3 Binding % inihibition 1 μM [7]: 90%
- κ (KOP) Binding % inihibition 1 μM [8]: 71%
- β1 Binding % inihibition 1 μM [9]: 80%
- β2 Binding % inihibition 1 μM [10]: 89%
- Ki [11]: 6 nM

Structure (SMILES): O=S(=O)(Nc1cc(OC2CCNCC2)c2occc2c1)c1ccccc1C(F)(F)F [Compound B, N-[7-(4-piperidinyloxy)-1-benzofuran-5-yl]-2-trifluoromethylbenzenesulphonamide]
- Ki [1, 15]: > 1000 nM
- Ki [2, 16]: 4 nM
- Ki [3, 17]: > 1000 nM
- Ki [4, 18]: > 1000 nM
- Ki [5]: 545 nM
- Ki [6, 19]: 1290 nM
- 5-HT3 Binding % inihibition 1 μM [7]: 91%
- κ (KOP) Binding % inihibition 1 μM [8]: 83%
- β1 Binding % inihibition 1 μM [9]: 82%
- β2 Binding % inihibition 1 μM [10]: 82%
- Ki [11]: 3 nM

Structure (SMILES): COc1cccc(C)c1NS(=O)(=O)c1cc(OC2CCNCC2)c2occc2c1 [Compound C]
- Ki [1, 15]: 1250 nM
- Ki [2]: 26 nM
- Ki [3, 17]: 1000 nM
- Ki [5]: 600 nM
- Ki [11]: 51 nM

Structure (SMILES): COc1ccc(C)cc1NS(=O)(=O)c1cc(OC2CCCNC2)c2occc2c1 (stereo not shown) [Compound D]
- Ki [1, 15]: 1370 nM
- Ki [2]: 14 nM
- Ki [3, 17]: 917 nM
- Ki [5]: 1450 nM
- Ki [11]: 37 nM

- Ki [1, 15]: 158 nM
- Ki [2, 16]: 0.18 nM
- Ki [3, 17]: 412 nM
- Ki [5]: 19.7 nM
- Ki [11]: 6 nM
Structure (SMILES): O=S(=O)(Nc1cc(N2CCNCC2)c2occc2c1)c1cccc2ccccc12 [Ex. 148, N-(7-piperazin-1-yl-benzofuran-5-yl)-1-naphthylsulphonamide, hydrochloride]

- Ki ([1]; figure in parentheses after the bound, read-out: 5-HT2c Selectivity Binding (Ki), value in parentheses): 2300 nM
- Ki [1, 15]: > 1000 nM
- inhibition at 0.05 µM ([2]; at 50 nM, either/or statement of b82, read-out: % inhibition of [3H] LSD (general statement)): ≥ 20%
- Ki ([3]; figure in parentheses after the bound, read-out: 5-HT2a Selectivity Binding (Ki), value in parentheses): 5600 nM
- Ki [3, 17]: > 1000 nM
- Ki ([4]; figure in parentheses after the bound, read-out: 5-HT1a Selectivity Binding (Ki), value in parentheses): 1400 nM
- Ki [4, 18]: > 1000 nM
- EC50 [12]: 3780 nM
- Ki [5]: 440 nM
- Ki ([6]; figure in parentheses after the bound, read-out: 5-HT1b Selectivity Binding (Ki), value in parentheses): 3600 nM
- Ki [6, 19]: > 1000 nM
- Ki [7]: 190 nM
- Ki [8]: 120 nM
Structure (SMILES): COc1ccc(C)cc1NS(=O)(=O)c1cc(OC2CCNCC2)c2occc2c1 [Example 1]
- food intake versus vehicle, Dunnets t-test ([13]; 15 mg/kg p.o.): significantly different from vehicle
- food intake versus vehicle, Dunnets t-test ([13]; 30 mg/kg p.o.): significantly different from vehicle
- food intake, days 8 to 14 and rest of the treatment period ([13]; all dose groups, P<0.076): remained decreased during the rest of the treatment period, although not statistically significant
- food intake during the first seven days ([13]; all dose groups, repeated ANOVA P<0.001): decreased food intake significantly
- minimum effective dose ([13]; food intake, p.o.): 15 mg/kg
- Body weight Mean (g) Day 28 ([14]; 5 mg/kg p.o. once a day): 845 g
- Basal Mean (%) Day 28 ([14]; 5 mg/kg p.o.): 103.5%
- Body weight gain Mean ([14]; 5 mg/kg p.o.): 29 g
- Reduction % of vehicle ([14]; 5 mg/kg p.o.): 3.9%
- Reduction gram ([14]; 5 mg/kg p.o.): −31 gram
- Body weight Mean (g) Day 28 ([14]; 15 mg/kg p.o. once a day): 834 g
- Basal Mean (%) Day 28 ([14]; 15 mg/kg p.o.): 103.7%
- Body weight gain Mean ([14]; 15 mg/kg p.o.): 30 g
- Reduction % of vehicle ([14]; 15 mg/kg p.o.): 3.7%
- Reduction gram ([14]; 15 mg/kg p.o.): −30 gram
- Body weight Mean (g) Day 28 ([14]; 30 mg/kg p.o. once a day): 810 g
- Basal Mean (%) Day 28 ([14]; 30 mg/kg p.o.): 100.6%
- Body weight gain Mean ([14]; 30 mg/kg p.o.): 4 g
- Reduction % of vehicle ([14]; 30 mg/kg p.o.): 6.9%
- Reduction gram ([14]; 30 mg/kg p.o.): −57 gram
- body weight throughout the whole treatment period ([14]; 5, 15, 30 mg/kg p.o., four weeks, repeated ANOVA P<0.001): decreased significantly
- reduction in body weight ([14]; third dose of the sentence, printed as 15 mg/kg): 6.9%

Structure (SMILES): CN1C[C@@H](NS(=O)(=O)N(C)C)C[C@@H]2c3cccc4c3c(cn4C)C[C@H]21 [mesulergide]
- Ki [2, 16]: 1970 nM
